Measurements from patent US7067531B2, “Farnesyl transferase inhibiting 6-heterocyclylmethyl quinolinone derivatives” (priority 2000, dated 2006).

Work on `O=C(O)C(=O)O.O=c1[nH]c2ccc(C(c3nc(-c4ccccc4)cs3)n3ccnc3-c3ccccc3)cc2c(-c2cccc(Cl)c2)c1CO` (centres unmarked) yielded a melting point of 149 °C.
Compound `Cn1cncc1C(O)(c1ccc2c(c1)c(-c1cccc(Cl)c1)cc(=O)n2C)c1nccs1` (racemic) [Example B3 F2, (±)-4-(3-chlorophenyl)-6-[hydroxy(1-methyl-1H-imidazol-5-yl)-2-thiazolylmethyl]-1-methyl-2(1H)-quinolinone] has a melting point of 246 °C.
`Cn1cncc1C(N)(c1ccoc1)c1ccc2c(c1)c(-c1cccc(Cl)c1)cc(=O)n2C` (racemic) [Example B8, (±)-6-[amino-3-furanyl(1-methyl-1H-imidazol-5-yl)methyl]-4-(3-chlorophenyl)-1-methyl-2(1H)-quinolinone] showed a melting point of 197 °C.
`Cn1cncc1C(O)(c1ccc2c(c1)c(-c1cccc(Cl)c1)cc(=O)n2C)c1nccn1C` (centres unmarked) [Example B7, 4-(3-chlorophenyl)-6-[hydroxy(1-methyl-1H-imidazol-2-yl)(1-methyl-1H-imidazol-5-yl)methyl]-1-methyl-2(1H)-quinolinone] showed a melting point of 130 °C.
For `Cn1cncc1C(O)(c1ccoc1)c1ccc2c(c1)c(-c1cccc(Cl)c1)cc(=O)n2C` (racemic) [Example B6, (±)-4-(3-chlorophenyl)-6-[3-furanylhydroxy(1-methyl-1H-imidazol-5-yl)methyl]-1-methyl-2(1H)-quinolinone], the melting point was 248 °C.
